Assay results from patent publication US6291496A, “Treating cancers associated with overexpression of class I family of receptor tyrosine kinases” (priority 1999, dated 2001).

Tests used:
[1] = tested on: HER-2/neu in 184B5/HER cells; assay: immunoblot for HER-2/neu in 184B5/HER cells; type: cell-based, human; settings: 25 μM ciglitazone or 20 μM 15-d-PGJ2, 24 hours
Excerpt: The 184B5/HER cell line was obtained from a collaborator and was derived by stably transfecting 184B5 cells with a mutationally activated HER-2/neu oncogene; these cells form rapidly growing tumors when injected into athymic nude mice. The 184B5/HER cell line is described in Pierce, J. H., et al., Oncogene 6, 1189-1194 (1991). The BT-474 cell line is a human breast cancer adenocarcinoma cell line which overexpresses HER-2/neu, and was obtained from the American Type Culture Collection (Manassas, Va.) and bears accession number ATCC HBT-20.
184B5/HER cells were maintained in MEM-KBM mixed in a ratio of 1:1 (basal medium) containing epidermal growth factor (10 ng/ml), hydrocortisone (0.5 μg/ml), transferrin (10 μg/ml), gentamicin (5 μg/ml) and insulin (10 μg/ml) (growth medium). […] cells were grown to 60% confluence, trypsinized with 0.05% trypsin-2 mM ethylenediaminotetraacetic acid, and plated for experimental use. […]
184B5/HER cells were treated with vehicle (0.01% dimethylsulfoxide), 25 μM ciglitazone (Biomol, Plymouth Meeting, Pennsylvania) or 20 μM 15-d-PGJ2 (Biomol, Plymouth Meeting, Pennsylvania) for 24 hours. […] The protein concentration of the supernatant was measured by the method of Lowry, O. H., et al, J. Biol. Chem. 193, 265-275 (1951). […]

HER-2/neu transcription = assay: nuclear run-off assay of HER-2/neu transcription in 184B5/HER cells; type: cell-based, human; settings: ciglitazone 5, 10 or 25 μM, 24 hours
Method: To determine whether PPARγ ligands inhibit the transcription of HER-2/neu, a nuclear run-off assay was carried out. 184B5/HER cells were treated with vehicle (0.01% dimethyl sulfoxide) or ciglitazone (5,10 or 25 μM) for 24 hours. 2.5×10^5 cells were plated in four T150 dishes for each condition. Cells were grown in growth medium until 60% confluent. Nuclei were isolated and stored in liquid nitrogen. The HER-2/neu and 18S rRNA cDNAs were immobilized on a nitrocellulose membrane (Schleicher & Schuell, Keene, N.H.) and prehybridized overnight in hybridization buffer.

HER-2/neu promoter = assay: transient transfection assay, human HER-2/neu promoter construct ligated to luciferase, 184B5/HER cells; type: cell-based; settings: 0-25 μM, 24 hours, FIG. 1
Method: To determine whether PPARγ ligands inhibit HER-2/neu promoter activity, a transient transfection assay was performed. 184B5/HER cells were transfected with 1.8 μg of a human HER-21neu promoter construct ligated to luciferase (-1571/--24) and 0.2 μg pSVβgal (Promega Corp., Madison Wis.). The HER-2/neu promoter (-1571/--24) is described in Hudson, L. G. et al, J. Biol. Chem. 265, 4389-4393 (3/90), the whole of which is incorporated herein by reference. The promoter constructs are described in Hudson, L. G., et al, Cell 62, 1165-1175(1990). 184B5/HER cells were seeded at a density of5×10^4 cells well in 6-well dishes and grown to 50-60% confluence. For each well, 2 μg of […] DNA were introduced into cells using 8 μg of LIPOFECTAMINE (Life Technologies, Inc., Grand Island, N.Y.) as per the manufacturer's instructions. Following transfection, the cells were treated with ciglitazone (0, 5, 10, 15, 20 and 25 μM) or 15d-PGJ2 (0, 5, 10, 15, 20 and 25 μM) for 24 hours.
The activities of luciferase and β-galactosidase were measured in cellular extract as described in Mestre, J. R. et al, Cancer Res. 57, 1081-1085 (1997).

EGFR promoter = assay: transient transfection assay, human EGFR promoter construct ligated to luciferase, 184B5 cells; type: cell-based; settings: 0-25 μM, 24 hours, FIG. 2
Method: To determine whether PPARγ ligands inhibit EGFR promoter activity, a transient transfection assay was performed, 184B5 cells were transfected with 1.8 μg of a human EGFR promoter construct ligated luciferase (-1100/-19) and 0.2 μg pSVβgal (Promega Corp., Madison, Wis.). The EGFR promoter is described in Hudson, L. G., et al, Cell 62, 1165-1175 (1990), the whole of which is incorporated herein by reference. 184B5 cells were seeded at a density of 5×10^4 cells/well in 6-well dishes and grown to 50-60% confluence. For each well 2 μg of […] DNA were introduced into cells using 8 μg of LIPOFECTAMINE (Life Technologies, Inc., Grand Island, N.Y.) as per the manufacturers instructions. Following transfection, the cells were treated with ciglitazone (0, 5, 10, 15, 20 and 25 μM) or 15-d-PGJ2 (0, 5, 10, 15, 20, and 25 μM) for 24 hours. The activities of luciferase and β-galactosidase were measured in cellular extract as described in Mestre, J. R, et al, Cancer Res. 57, 1081-1085 (1997). The results are shown in FIG. 2 where luciferase activity represents data that have been normalized to β-galactosidase activity (columns, means; bars, S. D., n=6; * means p<0.01 compared to control).

[2] = tested on: HER-2/neu positive breast cancer; assay: Example II: adjuvant therapy with PPARγ ligand and HERCEPTIN; type: in vivo, human; settings: patient, oral 5 mg/kg twice daily for one year, with HERCEPTIN 250 mg IV loading then 10 weekly doses of 125 mg
[3] = tested on: HER-2/neu positive colon cancer; assay: Example V: after resection of colon cancer; type: in vivo, human; settings: patient, oral 5 mg/kg twice daily for five years after resection
[4] = tested on: head and neck carcinoma where EGFR is overexpressed; assay: Example VII: head and neck carcinoma; type: in vivo, human; settings: after the 12 weeks of CETUXIMAB and cisplatin, oral 5 mg/kg twice daily for 12 weeks
Method: Concurrently cisplatin is infused every four weeks at 60 mg/m^2.

[5] = tested on: Stage IV EGFR positive breast cancer tumors; assay: Example VIII: breast cancer with Stage IV EGFR positive tumors; type: in vivo, human; settings: oral 5 mg/kg twice daily in combination with CETUXIMAB and Taxol
[6] = tested on: EGFR positive breast cancer; assay: Example IX: adjuvant therapy after mastectomy; type: in vivo, human; settings: patient, oral 5 mg/kg twice daily for five years after mastectomy

CC1(COc2ccc(CC3SC(=O)NC3=O)cc2)CCCCC1 (stereo not drawn) [ciglitazone]
amount of HER-2/neu (immunoblot) [1]: decreased the amount of HER-2/neu | HER-2/neu transcription (nuclear run-off) (HER-2/neu transcription): dose-dependent suppression of HER-2/neu transcription | HER-2/neu promoter activity (luciferase normalized to β-galactosidase) (HER-2/neu promoter): inhibited HER-2 neu promoter activity in a dose-dependent fashion | EGFR promoter activity (luciferase normalized to β-galactosidase) (EGFR promoter): inhibited EGFR promoter activity in a dose-dependent fashion | recurrence of breast cancer [2]: Recurrence of breast cancer does not occur | recurrence of colon cancer [3]: Recurrence of colon cancer does not occur | tumor burden [4]: further reduced tumor burden | tumor burden [5]: reduced tumor burden | recurrence of breast cancer [6]: Recurrence of breast cancer dose not occur
